Data taken from patent US20120208883A1, “TREATMENT OF ONCOLOGICAL DISEASES” (priority 2008, published 2012).

Tests used:
NCI-H1650 cell line = assay: Anti-tumoral activity in vivo, NCI-H1650 subcutaneous tumor; design: species or system CD1 nude mice; settings: acetyl L-carnitine 200 mg/kg po qdx5/wx3w; cisplatin 4 mg/kg ip q4dx6
Procedure: (§1) Anti-tumoral activity in vivo (CD1 Nude mouse) using five different tumoral cell lines.
The tumors were generated by subcutaneous injection in the right flank of CD1 nude mice of NCI-H1650 tumor cells (5×10^6/200 μl/mouse) in suspension in 0.1 ml medium Tc199+0.1 ml Matrigel.
(§2) Treatments started when tumors were palpable, 8 mice per group were used.
(§3) Acetyl L-carnitine was administered po (oral administration) at 200 mg/kg according to the schedule qdx5/w (once per day for 5 days per week).
(§4) Tumor volume (TV) was calculated biweekly by measuring the diameter of the tumors with a Vernier caliper according to the formula
(§5) where d and D are the shortest and longest diameters, respectively. The efficacy of the drug treatment was assessed as the tumor volume inhibition according to the formula reported underneath: […]

[1] = test system: A2780/Dx multidrug-resistant ovarian tumor cell line; assay: Anti-proliferative activity in vitro (MTT assay), A2780/Dx; format: cell-based; settings: 10 mM, 6 days of treatment, 0.1% FBS
Procedure: (§6) The anti-proliferative activity of acetyl L-carnitine was evaluated in two different NSCLC tumor cell lines (NCI-H460 and NCI-H1650) and on one ovarian tumor cell line (A2780/Dx multidrug-resistant).
(§7) Cells were seeded in 96-well tissue culture plates and treated for three days (NCI-H460 NSCLC) or six days (NCI-H1650 NSCLC and A2780/Dx cells) with acetyl L-carnitine (10 mM in 0.1% FBS). To test the effect of acetyl L-carnitine on cell growth, tumor cells were seeded in 96-well tissue culture plates at approximately 10% confluence and were allowed to attach and recover for at least 24 h. Tumor cells were exposed to treatment protocol for 72 h or 6 days in 0.1% FBS at 37° C., then medium culture (RPMI 1640) was removed and 100 μl/well of medium were added containing 25 μl/well of a solution 5 mg/ml tetrazolium salt (MTT) assay, (final 1 mg/ml). Plates were kept at 37° C. in incubator with 5% CO2 for 2 h for the formation of blue crystals. […] The cell survival was determined as optical density by a Multiskan spectrofluorimeter at 570 nm (Hansen M. B., et al., J. Immunol. Methods, 1989, 119, 203). Percentage of tumor cell inhibition in the presence of 10 mM acetyl L-carnitine was evaluated and compared with that obtained in the absence of acetyl L-carnitine applying the statistical comparison by means of the Mann-Whitney test.

[2] = test system: Human A549 NSCLC cell line; assay: Anti-tumoral activity in vivo, A549 subcutaneous tumor; design: species or system CD1 nude mice; settings: acetyl L-carnitine 200 mg/kg po qdx5/wx4w, cisplatin 4 mg/kg ip q4dx6
Procedure: as §1
The tumors were generated by subcutaneous injection in the right flank of CD1 nude mice of A549 tumor cells (3×10^6/100 μl/mouse) in 0.1 ml medium Tc199.
as §2, §3, §4, §5

[3] = test system: NCI-H460 NSCLC tumor cell line; assay: Anti-proliferative activity in vitro (MTT assay), NCI-H460; format: cell-based; settings: 10 mM, 72 h of treatment, 0.1% FBS
Procedure: as §6, §7

[4] = test system: SJSA-1 (with amplification of mdm2) osteosarcoma cells; assay: Antiproliferative activity on SJSA-1 osteosarcoma cells (MTT assay); format: cell-based
Procedure: The evaluation of antiproliferative activity was carried out by MTT assay.

[5] = test system: NCI-H460 metastatic clone; assay: Anti-tumoral and antimetastatic activity in vivo, NCI-H460 metastatic clone; design: species or system CD1 nude mice; settings: for antimetastatic effect on spontaneous lung metastases: NCI-H460 metastatic clone injected subcutaneously; for % inhibition of lung metastases / TVI %: acetyl L-carnitine 200 mg/kg po qdx5/wx4w, cisplatin 5 mg/kg iv q7dx4
Procedure: as §1
(§8) The tumors were generated by subcutaneous injection in the right flank of CD1 nude mice of NCI-H460 tumor cells (3×10^6/100 μl/mouse), in 0.1 ml medium Tc199.
as §2, §3, §4, §5

[6] = test system: NCI-H1650 NSCLC tumor cell line; assay: Anti-proliferative activity in vitro (MTT assay), NCI-H1650; format: cell-based; settings: 10 mM, 6 days of treatment, 0.1% FBS
Procedure: as §6, §7

NCI-H460 cell line = assay: Anti-tumoral activity in vivo, NCI-H460 subcutaneous tumor; design: species or system CD1 nude mice; settings: acetyl L-carnitine 200 mg/kg po qdx5/wx4w; cisplatin 4 mg/kg ip q4dx5
Procedure: as §1, §8, §2, §3, §4, §5

A2780 ADR cell line = assay: Anti-tumoral activity in vivo, A2780 ADR subcutaneous tumor; design: species or system CD1 nude mice; settings: acetyl L-carnitine 200 mg/kg po qdx5/wx3w, doxorubicin 6 mg/kg iv q7dx3
Procedure: as §1
The tumors were generated by subcutaneous injection in the right flank of CD1 nude mice of A2780 ADR tumor cells (5×10^6/100 μl/mouse) in 0.1 ml medium Tc199.
as §2, §3
The reference compound doxorubicin was delivered intravenously according to the schedule q7dx3, at a dose of 6 mg/kg.
as §4, §5

tumour mass = settings: WO/2000/06134; ALC 100 mg/kg orally; cited from earlier work
[7] = test system: NCI-H460 non-small cell lung carcinoma; assay: Antitumor activity of L-carnitine in combination with cisplatin against NCI-H460; format: in vivo
Procedure: Treatments started three days after tumor injection. To evaluate the antitumor activity, tumor diameters were measured with a Vernier caliper. […] When tumors reached a volume of 1-2 cm^3, mice were sacrificed by cervical dislocation. Body weight recording was carried out through the study and mortality was noted.

SMILES: CC(=O)O[C@H](CC(=O)[O-])C[N+](C)(C)C [Acetyl L-carnitine, acetyl L-carnitine]
- TVI % (NCI-H1650 cell line): 19 ± 4%
- Tumor cell inhibition % [1]: 29%
- Absorbance ± SE at 570 nm ([1]; control 331 ± 18): 234 ± 16
- TVI % [2]: 27 ± 3%
- TVI % ([2]; listed as acetyl L-carnitine): 27%
- Tumor cell inhibition % ([3]; P <0.001): 32%
- Absorbance ± SE at 570 nm ([3]; control 745 ± 18): 509 ± 8
- Tumor cell inhibition % ([4]; 10 mM, 72 h of exposure followed by 72 h of recovery, 0.1% FBS, P 0.0037 vs control): 24%
- antiproliferative activity compared with cisplatin ([4]; 72 h of exposure, medium containing 0.1% FBS): statistically significant more active than cisplatin
- antimetastatic effect on spontaneous lung metastases [5]: statistically significant antimetastatic effect
- % inhibition of lung metastases [5]: 50%
- TVI % [5]: 34 ± 5%
- Tumor cell inhibition % ([6]; P <0.001): 41%
- Absorbance ± SE at 570 nm ([6]; control 484 ± 25): 285 ± 11
- TVI % ± SE (NCI-H460 cell line): 40 ± 6%
- TVI % (A2780 ADR cell line): 28 ± 11%
- TVI % (A2780 ADR cell line; listed as acetyl L-carnitine): 28%
- effect on tumour growth (tumour mass): no effect on tumour growth

SMILES: N.N.[Cl][Pt][Cl] [Cisplatin, cisplatin, reference compound]
- TVI % (NCI-H1650 cell line): 23 ± 3%
- TVI % [2]: 49 ± 13%
- TVI % ([2]; listed as cisplatin): 49%
- antimetastatic effect on spontaneous lung metastases [5]: ineffective
- % inhibition of lung metastases [5]: 0%
- TVI % [5]: 41 ± 5%
- TVI % ± SE +32 ([7]; day +32, cisplatin 4 mg/kg ip q4d/wx3w, L-carnitine 200 mg/kg po qdx5/wx3w): 80 ± 21%
- TVI % ± SE (NCI-H460 cell line): 41 ± 5%
- TVI % (A2780 ADR cell line): 60%

SMILES: COc1cccc2c1C(=O)c1c(O)c3c(c(O)c1C2=O)C[C@@](O)(C(=O)CO)C[C@@H]3O[C@H]1C[C@H](N)[C@H](O)[C@H](C)O1 [Doxorubicin, doxorubicin, reference compound]
- TVI % (A2780 ADR cell line): 60 ± 11%

SMILES: C[N+](C)(C)C[C@H](O)CC(=O)[O-] [L-carnitine]
- potentiation of the cytotoxic activity of cisplatin ([7]; L-carnitine 200 mg/mice/day given chronically): not able to potentiate the cytotoxic activity of cisplatin

SMILES: CC(=O)O[C@H]1C(=O)[C@@]2(C)[C@H]([C@H](OC(=O)c3ccccc3)[C@]3(O)C[C@H](OC(=O)[C@H](O)[C@@H](NC(=O)c4ccccc4)c4ccccc4)C(C)=C1C3(C)C)[C@]1(OC(C)=O)CO[C@@H]1C[C@@H]2O [Paclitaxel, paclitaxel, reference compound]
- inhibition of tumour growth (TVI) (tumour mass): 88%

SMILES: CC(=O)O[C@H](CC(=O)[O-])C[N+](C)(C)C [acetyl L-carnitine (ALC)]
- effect on the formation of lung metastases (tumour mass): significant inhibitory effect
